Measurements from ChEMBL document CHEMBL5608222, “Development of 3'-Deoxy-3',4'-didehydro-nucleoside Prodrug Inhibitors of West Nile and Zika Viruses” (ACS Med Chem Lett, 2024).
The source made the active and inactive calls. No cut-off for these calls is given here.

Legend:
Zika virus [1] = test: Antiviral activity against ZIKV infected in Huh-7 cells assessed as log reduction in viral titer at 1 mM preincubated for 24 hrs prior to compound washout followed by viral infection for 1 hr again media washout and compound addition for 3 days by neutral red staining based assay; format: functional
Huh-7 [2] = test: Cytotoxicity against human Huh-7 cells assessed as decrease in cell viability at 0.1 to 1 mM incubated for 5 days by Alamar blue assay; format: toxicity, cell-based; details: huh-7, 120 h, 1000 µM, dose 0.1-1 mM, time 5 day
West Nile virus [3] = test: Antiviral activity against WNV infected in Huh-7 cells assessed as log reduction in viral titer at 0.1 to 1 mM preincubated for 24 hrs prior to compound washout followed by viral infection for 1 hr again media washout and compound addition for 3 days by neutral red staining based assay; format: functional; details: dose 0.1-1 mM; for Activity: time 96.0 hrs
Zika virus [4] = test: Antiviral activity against ZIKV infected in Huh-7 cells assessed as log reduction in viral titer at 0.1 mM preincubated for 24 hrs prior to compound washout followed by viral infection for 1 hr again media washout and compound addition for 3 days by neutral red staining based assay; format: functional; details: for Activity: time 96.0 hrs
[5] = Cytotoxicity against african green monkey Vero cells assessed as decrease in cell viability at 0.1 to 1 mM incubated for 5 days by Alamar blue assay; format: toxicity, cell-based; details: chlorocebus sabaeus, 120 h, 1000 µM, dose 0.1-1 mM, time 5 day
Huh-7 [6] = test: Cytotoxicity against human Huh-7 cells at 0.1 to 1 mM incubated for 6 days by neutral red staining based assay; format: toxicity, cell-based; details: huh-7, 144 h, 1000 µM, dose 0.1-1 mM, time 6 day
Zika virus [7] = test: Antiviral activity against ZIKV infected in Huh-7 cells assessed as reduction in viral titer at 0.1 to 1 mM preincubated for 24 hrs prior to compound washout followed by viral infection for 1 hr again media washout and compound addition for 3 days by neutral red staining based assay; format: functional; details: dose 0.1-1 mM
[8] = Cytotoxicity against african green monkey Vero cells assessed as decrease in cell viability at 1 mM incubated for 5 days by Alamar blue assay; format: toxicity, cell-based; details: chlorocebus sabaeus, 120 h, 1000 µM, time 5 day
Huh-7 [9] = test: Cytotoxicity against human Huh-7 cells assessed as decrease in cell viability at 1 mM incubated for 5 days by Alamar blue assay; format: toxicity, cell-based; details: huh-7, 120 h, 1000 µM, time 5 day
[10] = Cytotoxicity against human Huh-7 cells assessed as cell viability at 1 mM incubated for 6 days by neutral red staining based assay; format: toxicity; details: time 6 day, read-out: Activity
West Nile virus [11] = test: Antiviral activity against WNV infected in Huh-7 cells assessed as log reduction in viral titer at 1 mM preincubated for 24 hrs prior to compound washout followed by viral infection for 1 hr again media washout and compound addition for 3 days by neutral red staining based assay; format: functional, organism-based; details: time 96.0 hrs
West Nile virus [12] = test: Antiviral activity against WNV infected in Huh-7 cells assessed as log reduction in viral titer at 0.1 mM preincubated for 24 hrs prior to compound washout followed by viral infection for 1 hr again media washout and compound addition for 3 days by neutral red staining based assay; format: functional; details: time 96 hrs
Huh-7 [13] = test: Cytotoxicity against human Huh-7 cells at 1 mM; format: toxicity, cell-based; details: huh-7, 120 h, 1000 µM, time 5 day
[14] = Cytotoxicity against african green monkey Vero cells assessed as decrease in cell viability at 0.1 to 1 mM incubated for 2 days by Alamar blue assay; format: toxicity, cell-based; details: chlorocebus sabaeus, 48 h, 1000 µM, dose 0.1-1 mM, time 2 day

With CC(C)OC(=O)[C@H](C)N[P@](=O)(OCC1=C[C@@H](O)[C@H](n2cnc3c(=O)[nH]c(N)nc32)O1)Oc1ccccc1 the “log(activity)” value (Zika virus [1]; time 96 hrs) was 3.8, the Activity (Huh-7 [2]) was “Non-Toxic” and the Activity (West Nile virus [3]) was “inactive”. The Activity (Zika virus [4]) was “Active”, the Activity [5] was “Non-Toxic” and the Activity (Huh-7 [6]) was “Non-Toxic”.
For Cc1cn([C@@H]2OC(CO[P@@](=O)(N[C@@H](C)C(=O)OC(C)C)Oc3ccccc3)=C[C@H]2O)c(=O)[nH]c1=O, the Activity (Zika virus [7]; time 96.0 hrs) was “inactive”, the Activity [8] was “Non-Toxic” and the Activity (West Nile virus [3]) was “inactive”. For the same molecule, the Activity (Huh-7 [9]) was 50% and the Activity (Huh-7 [6]) was “Non-Toxic”.
For O=c1[nH]cnc2c1ncn2[C@@H]1OC(CO)=C[C@H]1O, the Activity (Huh-7 [2]) was “Non-Toxic”, the Activity (West Nile virus [3]) was “inactive” and the Activity [5] was “Non-Toxic”. The Activity (Huh-7 [6]) was “Non-Toxic”.
In the case of O=c1ccn([C@@H]2OC(CO)=C[C@H]2O)c(=O)[nH]1, the Activity (Huh-7 [2]) is reported as “Non-Toxic”, the Activity (West Nile virus [3]) is reported as “inactive” and the Activity [5] is reported as “Non-Toxic”. The Activity (Huh-7 [6]) was “Non-Toxic”.
In the case of Cc1cn([C@@H]2OC(CO)=C[C@H]2O)c(=O)[nH]c1=O, the Activity (Huh-7 [2]) is reported as “Non-Toxic”, the Activity (West Nile virus [3]) is reported as “inactive” and the Activity [5] is reported as “Non-Toxic”. For the same molecule, the Activity (Huh-7 [6]) was “Non-Toxic”.
With CC(C)OC(=O)[C@H](C)N[P@](=O)(OCC1=C[C@@H](O)[C@H](n2cnc3c(=O)[nH]cnc32)O1)Oc1ccccc1 the Activity (Huh-7 [2]) was “Non-Toxic”, the Activity (Zika virus [7]; time 96.0 hrs) was “inactive” and the Activity (West Nile virus [3]) was “inactive”. For the same molecule, the Activity [5] was “Non-Toxic” and the Activity (Huh-7 [6]) was “Non-Toxic”.
With CC(C)OC(=O)[C@H](C)N[P@](=O)(OCC1=C[C@@H](O)[C@H](n2cnc3c(N)ncnc32)O1)Oc1ccccc1 the Activity (Zika virus [7]; time 96 hrs) was 100%, the Activity [8] was 80% and the viability at 144 h, 1000 µM [10] was 70%. For the same molecule, the Activity (West Nile virus [11]) was “Active”, the “log(activity)” value (West Nile virus [3]; time 96 hrs) was 4.8 and the “log(activity)” value (West Nile virus [12]) was 2.5. The Activity (Zika virus [4]) was “Active”, the Activity (Huh-7 [9]) was 25% and the Activity (Huh-7 [13]) was “Toxic”. The Activity (Huh-7 [6]) was “Toxic”.
For Nc1nc2c(ncn2[C@@H]2OC(CO)=C[C@H]2O)c(=O)[nH]1, the Activity (Huh-7 [2]) was “Non-Toxic”, the Activity (West Nile virus [3]) was “inactive” and the Activity [5] was “Non-Toxic”. For the same molecule, the Activity (Huh-7 [6]) was “Non-Toxic”.
For CC(C)OC(=O)[C@H](C)N[P@](=O)(OCC1=C[C@@H](O)[C@H](n2ccc(=O)[nH]c2=O)O1)Oc1ccccc1, the Activity (Zika virus [1]; time 96.0 hrs) was “inactive”, the Activity [8] was “Non-Toxic” and the Activity (West Nile virus [3]) was “inactive”. The “log(activity)” value (Zika virus [4]; time 96 hrs) was 2.5, the Activity (Huh-7 [9]) was 70% and the Activity (Huh-7 [6]) was “Non-Toxic”.
With Nc1ncnc2c1ncn2[C@@H]1OC(CO)=C[C@H]1O the Activity (Huh-7 [2]) was < 25%, the viability at 144 h, 1000 µM [10] was 70% and the Activity (West Nile virus [11]) was “Active”. For the same molecule, the Activity [14] was “Toxic”, the “log(activity)” value (West Nile virus [12]) was 1.5 and the Activity (Huh-7 [13]) was “Toxic”. For the same molecule, the Activity [5] was “Non-Toxic” and the Activity (Huh-7 [6]) was “Toxic”.
